# Reference: PubChem BioAssay AID1259411 (Chemical Carcinogenesis Research Information System (CCRIS), 2018)
# Activity calls are given as the source filed them. The rule behind the calls is not given here.
# Tested on: rodent carcinogenicity bioassays, tumor incidence
# Test: CCRIS carcinogenicity studies
# In short: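 Archive of carcinogenicity, mutagenicity, tumor promotion and tumor inhibition results drawn from journals, NCI reports and other sources, expert-reviewed; covers 1985-2011 and is no longer updated.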
structure (smiles),measurement,setting,value
Oc1ccccc1-c1ccccc1,carcinogen call,"Species: GUINEA PIG, Strain/Sex: HARTLEY/MALE, Route: ORAL, Dose: 0, 2% IN DIET (STUDY DURATION: 48 WK)",inactive; negative
same,carcinogen call,"Species: HAMSTER, Strain/Sex: SYRIAN/MALE, Route: ORAL, Dose: 0, 2% IN DIET (STUDY DURATION: 48 WK)",inactive; negative
same,carcinogen call,"Species: MOUSE, Strain/Sex: B6C3F1/FEMALE, Route: ORAL, Dose: 0, 0.5, 1, 2% IN DIET FOR 96 WK (STUDY DURATION: 104 WK), Dose: 0, 0.5, 1, 2% IN DIET FOR 96 WK (STUDY DURATION: 104 WK)",inactive; negative
same,carcinogen call,"Species: MOUSE, Strain/Sex: B6C3F1/FEMALE, Route: ORAL, Dose: 0, 0.5, 1, 2% IN THE DIET FOR 96 WK (STUDY DURATION: 104 WK), Dose: 0, 0.5, 1, 2% IN THE DIET FOR 96 WK (STUDY DURATION: 104 WK)",inactive; negative
same,carcinogen call,"Species: MOUSE, Strain/Sex: B6C3F1/MALE, Route: ORAL, Dose: 0, 0.5, 1, 2% IN DIET FOR 96 WK (STUDY DURATION: 104 WK), Dose: 0, 0.5, 1, 2% IN DIET FOR 96 WK (STUDY DURATION: 104 WK)",inactive; negative
same,carcinogen call,"Species: MOUSE, Strain/Sex: B6C3F1/MALE, Route: ORAL, Dose: 0, 0.5, 1, 2% IN THE DIET FOR 96 WK (STUDY DURATION: 104 WK), Dose: 0, 0.5, 1, 2% IN THE DIET FOR 96 WK (STUDY DURATION: 104 WK)",inactive; negative
same,carcinogen call,"Species: MOUSE, Strain/Sex: B6C3F1/MALE, Route: ORAL, Dose: 0, 2% IN DIET (STUDY DURATION: 48 WK)",inactive; negative
same,carcinogen call,"Species: MOUSE, Strain/Sex: CD-1/FEMALE, Route: DERMAL, Dose: 0, 55.5 MG/ANIMAL IN 0.1 ML ACETONE 3 D/WK FOR 102 WK",inactive; negative
same,carcinogen call,"Species: MOUSE, Strain/Sex: CD-1/MALE, Route: DERMAL, Dose: 0, 55.5 MG/ANIMAL IN 0.1 ML ACETONE 3 D/WK FOR 102 WK",inactive; negative
same,carcinogen call,"Species: RAT, Strain/Sex: F344/MALE, Route: ORAL, Dose: 0, 0.125, 0.25, 0.5, 1.0, 2.0, 4.0% IN DIET FOR 91 WK, Dose: 0, 0.125, 0.25, 0.5, 1.0, 2.0, 4.0% IN DIET FOR 91 WK, Tumor Site: Type of Lesion: KIDNEY: TRANSITIONAL CELL CARCINOMA, URINARY BLADDER: TRANSITIONAL CELL CARCINOMA",active; positive
same,carcinogen call,"Species: RAT, Strain/Sex: F344/MALE, Route: ORAL, Dose: 0, 0.625, 1.25, 2.5% IN PELLET DIET FOR STUDY DURATION (STUDY DURATION: 91 WK), Dose: 0, 0.625, 1.25, 2.5% IN PELLET DIET FOR STUDY DURATION (STUDY DURATION: 91 WK), Tumor Site: Type of Lesion: BLADDER: TRANSITIONAL CELL PAPILLOMA, TRANSITIONAL CELL CARCINOMA",active; positive
same,carcinogen call,"Species: RAT, Strain/Sex: F344/MALE, Route: ORAL, Dose: 0, 2% IN DIET (STUDY DURATION: 48 WK)",inactive; negative
same,carcinogen call,"Species: RAT, Strain/Sex: F344/MALE, Route: ORAL, Dose: 0, 2% IN DIET FOR 104 WK (STUDY DURATION: 104 WK), Tumor Site: Type of Lesion: BLADDER: CARCINOMA",active; positive
c1ccc2c(c1)[nH]c1ccccc12,carcinogen call,"Species: MOUSE, Strain/Sex: B6C3F1/FEMALE, Route: ORAL, Dose: 0.15, 0.3, 0.6% IN DIET FOR 96 WK, Dose: 0.15, 0.3, 0.6% IN DIET FOR 96 WK, Tumor Site: Type of Lesion: LIVER: HEPATOCELLULAR CARCINOMA",active; positive
same,carcinogen call,"Species: MOUSE, Strain/Sex: B6C3F1/MALE, Route: ORAL, Dose: 0.15, 0.3, 0.6% IN DIET FOR 96 WK, Dose: 0.15, 0.3, 0.6% IN DIET FOR 96 WK, Tumor Site: Type of Lesion: FORESTOMACH: PAPILLOMA, SQUAMOUS CELL CARCINOMA, LIVER: HEPATOCELLULAR CARCINOMA",active; positive
same,carcinogen call,"Species: MOUSE, Strain/Sex: CD-1/FEMALE, Route: INTRAPERITONEAL, Dose: 0, 1.75 UMOL/MOUSE (TOTAL DOSE) ADMINISTERED DURING DAYS 1, 8, AND 15 OF LIFE (STUDY DURATION: 52 WK)",inactive; negative
same,carcinogen call,"Species: MOUSE, Strain/Sex: CD-1/MALE, Route: INTRAPERITONEAL, Dose: 0, 1.75 UMOL/MOUSE (TOTAL DOSE) ADMINISTERED DURING DAYS 1, 8, AND 15 OF LIFE (STUDY DURATION: 52 WK)",inactive; negative
CCCCN(N=O)C1CCC(=O)O1 (configuration not stated),carcinogen call,"Species: RAT, Strain/Sex: F344/MALE, Route: SUBCUTANEOUS, Dose: 38 UMOL/KG IN OLIVE OIL 1/WK FOR 10 WK, Tumor Site: Type of Lesion: INJECTION SITE: MALIGNANT FIBROUS HISTIOCYTOMA, LUNG: ADENOMA",active; positive
COc1ccc(N)cc1,carcinogen call,"Species: MOUSE, Strain/Sex: B6C3F1/FEMALE, Route: ORAL, Dose: 0, 0.5, 1.0% OF DIET FOR 103 WK (STUDY DURATION: 104 WK), Dose: 0, 0.5, 1.0% OF DIET FOR 103 WK (STUDY DURATION: 104 WK)",inactive; negative
same,carcinogen call,"Species: MOUSE, Strain/Sex: B6C3F1/MALE, Route: ORAL, Dose: 0, 0.5, 1.0% OF DIET FOR 103 WK (STUDY DURATION: 104 WK), Dose: 0, 0.5, 1.0% OF DIET FOR 103 WK (STUDY DURATION: 104 WK)",inactive; negative
same,carcinogen call,"Species: RAT, Strain/Sex: F344/FEMALE, Route: ORAL, Dose: 0, 0.3, 0.6% OF DIET FOR 103 WK (STUDY DURATION: 104-105 WK), Dose: 0, 0.3, 0.6% OF DIET FOR 103 WK (STUDY DURATION: 104-105 WK)",inactive; negative
same,carcinogen call,"Species: RAT, Strain/Sex: F344/MALE, Route: ORAL, Dose: 0, 0.3, 0.6% OF DIET FOR 103 WK (STUDY DURATION: 104-105 WK), Dose: 0, 0.3, 0.6% OF DIET FOR 103 WK (STUDY DURATION: 104-105 WK), Tumor Site: Type of Lesion: PREPUTIAL GLAND: ADENOMA OR CARCINOMA",equivocal
O=C(O)CCCOc1ccc(Cl)cc1Cl,carcinogen call,"Species: MOUSE, Strain/Sex: ICR/FEMALE, Route: ORAL, Dose: 0, 25, 250, 750 PPM IN DIET FOR 78 WK (STUDY DURATION: 78 WK), Dose: 0, 25, 250, 750 PPM IN DIET FOR 78 WK (STUDY DURATION: 78 WK)",inactive; negative
same,carcinogen call,"Species: MOUSE, Strain/Sex: ICR/MALE, Route: ORAL, Dose: 0, 25, 250, 750 PPM IN DIET FOR 78 WK (STUDY DURATION: 78 WK), Dose: 0, 25, 250, 750 PPM IN DIET FOR 78 WK (STUDY DURATION: 78 WK)",inactive; negative
same,carcinogen call,"Species: RAT, Strain/Sex: SPRAGUE-DAWLEY/FEMALE, Route: ORAL, Dose: 0, 60, 600, 1800 PPM IN DIET FOR 104 WK (STUDY DURATION: 104 WK), Dose: 0, 60, 600, 1800 PPM IN DIET FOR 104 WK (STUDY DURATION: 104 WK)",inactive; negative
same,carcinogen call,"Species: RAT, Strain/Sex: SPRAGUE-DAWLEY/MALE, Route: ORAL, Dose: 0, 60, 600, 1800 PPM IN DIET FOR 104 WK (STUDY DURATION: 104 WK), Dose: 0, 60, 600, 1800 PPM IN DIET FOR 104 WK (STUDY DURATION: 104 WK)",inactive; negative
Cc1nn(C)c(Oc2ccccc2)c1/C=N/OCc1ccc(C(=O)OC(C)(C)C)cc1,carcinogen call,"Species: Mouse, Strain/Sex: ICR (Crj:CD-1)/Female (50/Group), Route: Oral, Dose: 0, 25, 100, 400, 800 ppm (0; 2.4; 10.2; 41.4; 73.1 mg/kg/day) for 18 mo, study duration 18 mo, Dose: 0, 25, 100, 400, 800 ppm (0; 2.4; 10.2; 41.4; 73.1 mg/kg/day) for 18 mo, study duration 18 mo",inactive; negative
same,carcinogen call,"Species: Mouse, Strain/Sex: ICR (Crj:CD-1)/Male (50/Group), Route: Oral, Dose: 0, 25, 100, 400, 800 ppm (0; 2.4; 9.5; 38.0; 69.6 mg/kg/day) for 18 mo, study duration 18 mo, Dose: 0, 25, 100, 400, 800 ppm (0; 2.4; 9.5; 38.0; 69.6 mg/kg/day) for 18 mo, study duration 18 mo",inactive; negative
same,carcinogen call,"Species: Rat, Strain/Sex: CD/Female (50/Group), Route: Oral, Dose: 0, 10, 25, 75, 150 ppm of 97.2% fenpyroximate (0; 0.49; 1.21; 3.81; 8.01 mg/kg/day) for 104 wk, study duration 104 wk, Dose: 0, 10, 25, 75, 150 ppm of 97.2% fenpyroximate (0; 0.49; 1.21; 3.81; 8.01 mg/kg/day) for 104 wk, study duration 104 wk",inactive; negative
same,carcinogen call,"Species: Rat, Strain/Sex: CD/Male (50/Group), Route: Oral, Dose: 0, 10, 25, 75, 150 ppm of 97.2% fenpyroximate (0; 0.40; 0.97; 3.00; 6.20 mg/kg/day) for 104 wk, study duration 104 wk, Dose: 0, 10, 25, 75, 150 ppm of 97.2% fenpyroximate (0; 0.40; 0.97; 3.00; 6.20 mg/kg/day) for 104 wk, study duration 104 wk",inactive; negative
[As],carcinogen call,"Species: HUMAN, Route: INHALATION, ORAL, Tumor Site: Type of Lesion: LUNG, INTEGUMENTARY SYSTEM (SKIN)",active; positive
O=C1c2ccccc2-c2ccc([N+](=O)[O-])c3cccc1c23,carcinogen call,"Species: RAT, Strain/Sex: F344/FEMALE, Route: INTRATRACHEAL, Dose: 0, 1.5 MG TOTAL, 2.5 MG TOTAL OVER 18 MO (STUDY DURATION: 18 MO), Dose: 0, 1.5 MG TOTAL, 2.5 MG TOTAL OVER 18 MO (STUDY DURATION: 18 MO), Tumor Site: Type of Lesion: LUNG: CARCINOMA",active; positive (at higher dosage and longer duration)
